{"source": "patent US6166000A", "about": "“Methods for preparation and use of 1α,24(S)-Dihydroxy vitamin . D.sub2” (priority 1995, dated 2000)", "key": {"[1]": {"tested_on": "human cancer cell lines BCA-1 or ZR-75-1 (breast) and COL-1 (colon)", "experiment": "Antiproliferative activity in human cancer cell lines (thymidine incorporation)", "assay_type": "cell-based", "settings": "dose-response", "procedure": "Dose-response studies are conducted with 1α,24(S)-(OH)2 D2 in a battery of human cancer cell lines. These cell lines include, but are not limited to, the following: BCA-1 or ZR-75-1 (breast) and COL-1 (colon), as described by Shieh, H. L. et al. Chem. Biol. Interact., vol. 81, pp. 35-55 (1982). In this study, appropriate solvents are used as negative controls."}, "[2]": {"tested_on": "postmenopausal osteoporotic out-patients", "experiment": "Preventive treatment of bone mass loss in postmenopausal osteoporotic women", "assay_type": "in vivo, human", "settings": "at or above 1.0 μg/day, 24 to 36 months", "procedure": "A clinical study is conducted with postmenopausal osteoporotic out-patientshaving ages between 55 and 75 years. The study involves up to 120 patients randomly divided into three treatment groups and continues for 24 to 36 months. Two of the treatment groups receive constant dosages of 1α,24(S)-dihydroxy vitamin D2 (u.i.d.; two different dose levels at or above 1.0 μg/day) and the other group receives a matching placebo. All patients maintain a normal intake of dietary calcium (500 to 800 mg/day) and refrain from using calcium supplements. Efficacy is evaluated by pre-and post-treatment comparisons of the patient groups with regard to (a) total body calcium retention, and (b) radial and spinal bone mineral density as determined by dual-photon absorptiometry (DPA) or dual-energy x-ray absorptiometry (DEXA). Safety is evaluated by comparisons of urinary hydroxyproline excretion, serum and urine calcium levels, creatinine. clearance, blood urea nitrogen, and other routine determinations."}, "[3]": {"tested_on": "men and women with renal disease undergoing chronic hemodialysis", "experiment": "Management of hypocalcemia and metabolic bone disease in chronic hemodialysis patients", "assay_type": "in vivo, human", "settings": "greater than 3.0 μg/day, twelve months; double-isotope technique", "procedure": "A twelve-month, double-blind, placebo-controlled clinical trial is conducted with thirty men and women with renal disease who are undergoing chronic hemodialysis. […] Efficacy is evaluated by pre- and post-treatment comparisons of the two patient groups with regard to (a) direct measurements of intestinal calcium absorption, (b) total body calcium retention, (c) radial and spinal bone mineral density, or (d) determinations of serum calcium. Safety is evaluated by regular monitoring of serum calcium."}, "Human keratinocytes": {"tested_on": "Human keratinocytes", "experiment": "Epidermal cell differentiation and proliferation testing", "assay_type": "cell-based", "settings": "0.05 to 5 μg/ml", "procedure": "Human keratinocytes are cultured according to known modifications of the system originally described by Rheinwald and Green (Cell, vol. 6, p. 331 (1975)). The 1α,24(S)-dihydroxy vitamin D2, dissolved in ethanol, is added to cells to yield a variety of concentrations between 0.05 and 5 μg/ml with the ethanol concentration not to exceed 0.5% v/v. Control cultures are supplemented with ethanol at a final concentration of 0.5% v/v.\nDifferentiation and proliferation of epidermal cells in culture is examined by:\n1. quantitation of cornified envelopes;\n2. quantitation of cell density of cells attached to disks;\n3. monitoring transglutaminase activity; or\n4. monitoring DNA synthesis by incorporation of ^3 H-thymidine."}, "[4]": {"tested_on": "healthy postmenopausal women", "experiment": "Prophylaxis of postmenopausal bone loss", "assay_type": "in vivo, human", "settings": "at or above 1.0 μg/day, 24 to 36 months", "procedure": "A clinical study is conducted with healthy postmenopausal women having ages between 55 and 60 years. The study involves up to 80 patients randomly divided into two treatment groups, and continues for 24 to 36 months. One treatment group receives a constant dosage of 1α,24(S)-dihydroxy vitamin D2 (u.i.d.; a dose level at or above 1.0 μg/day) and the other receives a matching placebo. The study is conducted as indicated in Example 2 above."}, "bovine thymus VDR": {"biological_target": "T1, bovine thymus VDR (Bos taurus, UniProt Q28037)", "T1 construct": "commercially available kit of bovine thymus VDR; purchased Incstar (Stillwater, Minn.); host or cells: bovine thymus", "T1 sequence (Q28037 1-426)": "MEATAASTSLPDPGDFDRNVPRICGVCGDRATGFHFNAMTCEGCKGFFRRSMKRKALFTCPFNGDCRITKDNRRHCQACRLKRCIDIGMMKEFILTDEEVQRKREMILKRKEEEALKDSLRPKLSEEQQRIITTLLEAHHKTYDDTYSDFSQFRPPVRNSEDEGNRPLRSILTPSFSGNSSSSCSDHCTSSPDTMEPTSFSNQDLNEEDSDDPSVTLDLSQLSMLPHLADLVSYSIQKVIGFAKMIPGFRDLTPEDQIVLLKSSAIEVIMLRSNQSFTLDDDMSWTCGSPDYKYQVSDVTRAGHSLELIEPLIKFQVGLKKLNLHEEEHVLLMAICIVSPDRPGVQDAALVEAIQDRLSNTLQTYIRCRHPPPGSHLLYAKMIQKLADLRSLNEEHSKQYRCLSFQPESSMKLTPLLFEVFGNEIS", "experiment": "Radioreceptor assay, displacement of 3H-1α,25-(OH)2 D3 tracer (Incstar kit)", "assay_type": "binding", "settings": "in words", "source_text": "Purified 1α,24(S)-(OH)2 D2 was quantitated by photodiode array spectrophotometry and assayed in the radioreceptor assay.\nThe purified 1α,24(R)-(OH)2 D2 and 1α,24(S)-(OH)2 D2 epimers were quantitated by ultraviolet spectroscopy. The concentration of 1α,24(R)-(OH)2 D2 required to produce the same displacement of ^3 H-1α,25-(OH)2 D3 tracer from the receptor was 20 to 30 times that required for 1α,24(S)-(OH)2 D2, as shown in FIG. 4."}, "HL-60 promyelocytes": {"tested_on": "HL-60 promyelocytes", "experiment": "HL-60 cell differentiation assay", "assay_type": "cell-based", "settings": "dose-response; acid esterase, NBT reduction, thymidine incorporation", "procedure": "A dose-response study is conducted with 1α,24(S)-(OH)2 D2 in the HL-60 cell differentiation assay as described by DeLuca and Ostrom (DeLuca, H. F. and Ostrem, V. K., Prog. Clin. Biol. Res., vol. 259, pp. 41-55 (1988)). In this study, 1α,25-(OH)2 D3 is used as a positive control and appropriate solvents are used as negative controls. The following variables are evaluated: nonspecific acid esterase activity, nitroblue tetrazolium (NBT) reduction, and thymidine incorporation."}, "[5]": {"tested_on": "postmenopausal osteoporotic women", "experiment": "Dose ranging study in postmenopausal osteoporotic women", "assay_type": "in vivo, human", "settings": "oral 0.5 to 8.0 μg/day, escalated weekly over five weeks", "procedure": "Twenty postmenopausal osteoporotic women are enrolled in an open label study.\nOn admission to the study, all patients receive instruction on selecting a daily diet containing 400 to 600 mg of calcium. Compliance to this diet is verified at weekly intervals by 24-hour food records and by interviews with each patient.\nAll patients complete a one-week baseline period, a five-week treatment period, and a one-week post-treatment observation period. During the treatment period, patients orally self-administer 1α,24(S)-dihydroxyvitamin D2 at an initial dose of 0.5 μg/day for the first week, and at successively higher doses of 1.0, 2.0, 4.0, and 8.0 μg/day in each of the following four weeks. All doses are administered before breakfast.\nBlood and urine chemistries are monitored on a weekly basis throughout the study. Key blood chemistries include fasting serum levels of-calcium, phosphorus, osteocalcin, creatinine, and blood urea nitrogen. Key urine chemistries include 24-hour excretion of calcium, phosphorus, and creatinine."}}, "note": "Entries after “also recorded” stand apart in the source; their conditions may differ."}
{"smiles": "C=C1/C(=C\\C=C2/CCC[C@]3(C)[C@@H]([C@H](C)/C=C/[C@@](C)(O)C(C)C)CC[C@@H]23)C[C@@H](O)C[C@@H]1O", "note": "[1α,24(S)-(OH)2 D2, 1α,24(S)-dihydroxy Vitamin D2]", "values": [{"measurement": "antiproliferative activity (inhibition of thymidine incorporation)", "setting": "[1]", "value": "potent (and reversible) antiproliferative activity"}, {"measurement": "incidence of hypercalcemia or hypercalciuria, or any other metabolic disturbance", "setting": "[2]", "value": "insignificant incidence"}, {"measurement": "total body calcium, and radial and spinal bone densities relative to placebo", "setting": "[2]", "value": "significantly higher"}, {"measurement": "intestinal calcium absorption", "setting": "[3]", "value": "significantly increases"}, {"measurement": "DNA synthesis (3H-thymidine incorporation) vs control cultures", "setting": "Human keratinocytes", "value": "lower DNA synthesis"}, {"measurement": "cell density of attached cells vs control cultures", "setting": "Human keratinocytes", "value": "fewer attached cells"}, {"measurement": "cornified envelopes vs control cultures", "setting": "Human keratinocytes", "value": "more cornified envelopes"}, {"measurement": "transglutaminase activity vs control cultures", "setting": "Human keratinocytes", "value": "higher transglutaminase activity"}, {"measurement": "monitored safety parameters, long-term administration", "setting": "[4]", "value": "confirm the safety"}, {"measurement": "affinity for VDR relative to 1α,25-(OH)2 D3", "setting": "bovine thymus VDR", "value": "two-fold less competitive; also recorded: two-fold lower affinity"}, {"measurement": "differentiation of HL-60 promyelocytes to monocytes", "setting": "HL-60 promyelocytes", "value": "potent activity in promoting differentiation"}, {"measurement": "routinely monitored serum parameters", "setting": "[5]", "value": "no effect"}, {"measurement": "serum osteocalcin levels", "setting": "[5]", "value": "increases"}, {"measurement": "urinary excretion of hydroxyproline", "setting": "[5]", "value": "nor does it increase"}]}
